Test results published in article PMC6749236, “Synthesis of Novel 2-(Het)arylpyrrolidine Derivatives and Evaluation of Their Anticancer and Anti-Biofilm Activity” (Molecules, 2019).

Legend:
[1] = tested on: Chang liver cell line; assay: Cytotoxicity assay (Cytell Cell Imaging), normal cell line; assay type: cell-based; settings: Homo sapiens, read-out: IC50 Normal Cell Line Chang Liver
[2] = tested on: M-Hela; assay: Cytotoxicity assay (Cytell Cell Imaging, DAPI/propidium iodide), cancer cell line; assay type: cell-based; settings: Homo sapiens, M-HeLa, read-out: IC50 Cancer Cell Line M-Hela

Row | Compound | IC50 [1] [µM] | IC50 [2] [µM] | melting point
1 | O=C(Nc1ccccc1)N1CCCC1c1c(O)c2ccccc2oc1=O (stereo not drawn) [8b, 2-(4-Hydroxy-2-oxo-2H-chromen-3-yl)-N-phenylpyrrolidine-1-carboxamide] | > 100 | > 100 | 179 to 180 °C
2 | O=C(NC1CCCCC1)N1CCCC1c1c(O)c2ccccc2oc1=O (stereo not drawn) [8g, N-Cyclohexyl-2-(4-hydroxy-2-oxo-2H-chromen-3-yl)pyrrolidine-1-carboxamide] | > 100 | > 100 | 166 to 167 °C
3 | CCCCCCNC(=O)N1CCCC1c1cc2c(cc1O)OCO2 (stereo not drawn) [5f, N-Hexyl-2-(6-hydroxybenzo[d][1,3]dioxol-5-yl)pyrrolidine-1-carboxamide] | > 100 | > 100 | 91 to 93 °C
4 | Cc1cc(O)c(C2CCCN2C(=O)Nc2ccc(F)cc2)c(=O)o1 (stereo not drawn) [7e, N-(4-Fluorophenyl)-2-(4-hydroxy-6-methyl-2-oxo-2H-pyran-3-yl)pyrrolidine-1-carboxamide] | > 100 | > 100 | 177 to 178 °C
5 | COc1ccc(NC(=O)N2CCCC2c2c(O)c3ccccc3oc2=O)cc1 (stereo not drawn) [8c, 2-(4-Hydroxy-2-oxo-2H-chromen-3-yl)-N-(4-methoxyphenyl)pyrrolidine-1-carboxamide] | > 100 | > 100 | 152 to 153 °C
6 | O=C(Nc1ccc(Br)cc1)N1CCCC1c1c(O)c2ccccc2oc1=O (stereo not drawn) [8d, N-(4-Bromophenyl)-2-(4-hydroxy-2-oxo-2H-chromen-3-yl)pyrrolidine-1-carboxamide] | > 100 | > 100 | 179 °C
7 | Cc1cc(O)c(C2CCCN2C(=O)NC2CCCCC2)c(=O)o1 (stereo not drawn) [7g, N-Cyclohexyl-2-(4-hydroxy-6-methyl-2-oxo-2H-pyran-3-yl)pyrrolidine-1-carboxamide] | > 100 | > 100 | 184 to 185 °C
8 | COc1ccc(NC(=O)N2CCCC2c2c(O)cc(C)oc2=O)cc1 (stereo not drawn) [7c, 2-(4-Hydroxy-6-methyl-2-oxo-2H-pyran-3-yl)-N-(4-methoxyphenyl)pyrrolidine-1-carboxamide] | > 100 | > 100 | 168 to 169 °C
9 | CCCCCCNC(=O)N1CCCC1c1c(O)cc(C)oc1=O (stereo not drawn) [7f, N-Hexyl-2-(4-hydroxy-6-methyl-2-oxo-2H-pyran-3-yl)pyrrolidine-1-carboxamide] | > 100 | > 100 | 137 to 138 °C
10 | CCCCCCNC(=O)N1CCCC1c1c(O)c2ccccc2oc1=O (stereo not drawn) [8f, N-Hexyl-2-(4-hydroxy-2-oxo-2H-chromen-3-yl)pyrrolidine-1-carboxamide] | > 100 | > 100 | 124 to 125 °C
11 | O=C(Nc1ccc(F)cc1)N1CCCC1c1c(O)c2ccccc2oc1=O (stereo not drawn) [8e, N-(4-Fluorophenyl)-2-(4-hydroxy-2-oxo-2H-chromen-3-yl)pyrrolidine-1-carboxamide] | > 100 | > 100 | 165 °C
12 | Cc1cc(O)c(C2CCCN2C(=O)Nc2ccccc2)c(=O)o1 (stereo not drawn) [7b, 2-(4-Hydroxy-6-methyl-2-oxo-2H-pyran-3-yl)-N-phenylpyrrolidine-1-carboxamide] | > 100 | > 100 | 190 to 191 °C
13 | COc1ccc(NC(=O)N2CCCC2c2cc3c(cc2O)OCO3)cc1 (stereo not drawn) [5c, 2-(6-Hydroxybenzo[d][1,3]dioxol-5-yl)-N-(4-methoxyphenyl)pyrrolidine-1-carboxamide] | > 100 | > 100 | 112 to 114 °C
14 | O=C(NC1CCCCC1)N1CCCC1c1cc2c(cc1O)OCO2 (stereo not drawn) [5g, N-Cyclohexyl-2-(6-hydroxybenzo[d][1,3]dioxol-5-yl)pyrrolidine-1-carboxamide] | > 100 | > 100 | 159 to 160 °C
15 | O=C(Nc1ccc(Br)cc1)N1CCCC1c1cc2c(cc1O)OCO2 (stereo not drawn) [5d, N-(4-Bromophenyl)-2-(6-hydroxybenzo[d][1,3]dioxol-5-yl)pyrrolidine-1-carboxamide] | > 100 | > 100 | 164 °C
16 | CCCCCCNC(=O)N1CCCC1c1ccc(Nc2c([N+](=O)[O-])c(Cl)cc3c2no[n+]3[O-])cc1O (stereo not drawn) [6f, 6-Chloro-4-((4-(1-(hexylcarbamoyl)pyrrolidin-2-yl)-3-hydroxyphenyl)amino)-5-nitrobenzo[c][1,2,5]oxadiazole 1-oxide] | 57 ± 4.3 | 47 ± 2.9 | 121 to 122 °C (dec.)
17 | NC(=O)N1CCCC1c1cc2c(cc1O)OCO2 (stereo not drawn) [5a, 2-(6-Hydroxybenzo[d][1,3]dioxol-5-yl)pyrrolidine-1-carboxamide] | > 100 | > 100 | 206 to 207 °C
